The record followed here is ChEMBL document CHEMBL1201862, “PubChem BioAssay data set” (2004).

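Growth conditions: 96-well plates. Treatment: test compound, 48 hours, 5 concentrations. Analysis: linear interpolation between bracketing concentrations; unreached endpoints set to highest concentration. Here, GI50 denotes the concentration required for 50% inhibition of growth.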 Activity calls are given as the source filed them. Cut-off read from the data, not from the text of the source: active = GI50 up to about 1.1 µM and inactive = higher.

Holding throughout (assay): inhibition of tumour cell growth, NCI panel, 48 h
Assay [1] deals with 786-0.
The test system of assay [2] is DMS-273.
The test system of assay [3] is HCT-116.
The subject of assay [4] is HL-60.
Assay [5] relates to HT-29.
For assay [6], the system named is IGROV-1.
The subject of assay [7] is Malme-3M.
Assay [8] relates to OVCAR-8.
Assay [9] has as its system SN12C.
Assay [10] has as its system SNB-78.
For assay [11], the system named is TK-10.
Assay [12] relates to UO-31.
The test system of assay [13] is SK-MEL-2.
The subject of assay [14] is DU-145.
Assay [15] concerns EKVX.
In assay [16] the test system is MCF7.
Assay [17] deals with NCI/ADR-RES.
Assay [18] concerns PC-3.
For assay [19], the system named is SNB-19.
Assay [20] concerns T47D.

As to `CCOC(=O)C(C[Si](C)(C)C)P(=O)(OCC)OCC` (centres undefined), the GI50 in [1], in [2], in assay [3], in assay [4], in assay [5] and in [6] was > 100 µM (inactive) throughout. Also, the GI50 in assay [7], in [8], in [9], in assay [10], in assay [11] and in assay [12] was > 100 µM (inactive) each time.

`O=c1cc(-c2ccccc2)[nH]c2c(F)ccc(F)c12`: the GI50 was 79.6 µM (inactive) in [1]; 24.3 µM (inactive) in assay [2]; 40.6 µM (inactive) in assay [3]; 31.8 µM (inactive) in [4]; 33.5 µM (inactive) in [5]; > 100 µM (inactive) in assay [6]. For the same compound, the GI50 in assay [7] was 31.7 µM (inactive); in assay [8] it was 82 µM (inactive); in assay [13] it was 16.4 µM (inactive); in [9] it was 63.5 µM (inactive); in assay [11], 61.9 µM (inactive); in [12], 88.3 µM (inactive).

For `O=C(Cc1ccc(Cl)c(Cl)c1)NCCCN1CCN(CCCN2CCCCC2)CC1`, the GI50 was 16.4 µM (inactive) in assay [1]; 40.5 µM (inactive) in assay [14]; 19.2 µM (inactive) in assay [15]; 16.3 µM (inactive) in assay [3]; 17.8 µM (inactive) in assay [4]; 10.8 µM (inactive) in assay [5]. The GI50 in assay [6] was 27.1 µM (inactive); in assay [16], 18.5 µM (inactive); in assay [7], 17.6 µM (inactive); in assay [17] it was > 100 µM (inactive); in [8], 27.6 µM (inactive); in [18], 18.5 µM (inactive). Also, the GI50 was 6.59 µM (inactive) in [13]; 18.8 µM (inactive) in assay [9]; 26.9 µM (inactive) in assay [19]; 20.3 µM (inactive) in [20]; 17.2 µM (inactive) in [11]; 1.84 µM (inactive) in [12].

Consider `OCC(S)CS.[Bi]` (centres undefined), for which the GI50 in assay [1] is 11.2 µM (inactive); in assay [14] it was 18.3 µM (inactive); in assay [15] it was 18 µM (inactive); in [3] it was 17.7 µM (inactive); in [4] it was 16.2 µM (inactive); in [5], 19 µM (inactive). Further, the GI50 in [6] was 18.3 µM (inactive); in assay [16], 18.5 µM (inactive); in [7], 3.97 µM (inactive); in [17], 36.1 µM (inactive); in assay [8] it was 19.5 µM (inactive); in assay [18], 13.1 µM (inactive). Besides, the GI50 was 12.6 µM (inactive) in assay [13]; 15.8 µM (inactive) in [9]; 13.7 µM (inactive) in [19]; 8.89 µM (inactive) in assay [20]; 17.8 µM (inactive) in assay [11]; 16.7 µM (inactive) in assay [12].

In the case of `CCOC(=O)[C@H]1CSC[C@@H](C(=O)OC)N1`, the GI50 in [1], in [2], in [15], in assay [3], in [4] and in [5] was > 100 µM (inactive) throughout. Further, the GI50 in assay [6], in assay [7], in [8], in [13], in [9] and in [19] was > 100 µM (inactive) in each case. Besides, the GI50 in assay [11] and in assay [12] was > 100 µM (inactive) in each case.

Turning to `Cc1ccc(-c2c(-c3ccccc3)[nH]c(C)c2C(=O)ONC(=O)c2ccccc2)cc1`, the GI50 in [1] is 3.03 µM (inactive); in assay [14], 1.82 µM (inactive); in assay [15] it was 7.28 µM (inactive); in assay [3] it was 2.48 µM (inactive); in assay [4] it was 0.673 µM (active); in assay [5], 7.83 µM (inactive). The GI50 in [6] was 1.46 µM (inactive); in assay [16] it was 4.84 µM (inactive); in assay [7], 11.4 µM (inactive); in [17], 4.65 µM (inactive); in [8], 4.62 µM (inactive); in assay [18], 5.92 µM (inactive). In addition, the GI50 was 3.7 µM (inactive) in [13]; 2.53 µM (inactive) in [9]; 6.38 µM (inactive) in assay [19]; 4.6 µM (inactive) in assay [20]; 5.52 µM (inactive) in [11]; 0.303 µM (active) in [12].

Turning to `CCOC(=O)/C=C/c1ccccn1`, the GI50 in [1], in [15], in [3], in assay [4], in assay [5] and in [6] was > 100 µM (inactive) throughout. Moreover, the GI50 in assay [7], in assay [8], in assay [13], in assay [9], in assay [10] and in assay [11] was > 100 µM (inactive) each time. The GI50 in assay [12] is > 100 µM (inactive).

As for `O=S1(=O)c2ccccc2NC(c2ccc3ccccc3c2)CC1c1ccccc1F` (centres undefined), the GI50 in assay [1], in [2], in assay [15], in [4], in assay [5] and in assay [6] was > 100 µM (inactive) each time. The GI50 in [7], in assay [8], in assay [13], in assay [9], in [19] and in [11] was > 100 µM (inactive) each time. Further, the GI50 in [12] was > 100 µM (inactive).

In the case of `O=[N+]([O-])C(C(Cl)=C(Cl)Cl)=C(N(Cc1ccccc1)Cc1ccccc1)N(Cc1ccccc1)Cc1ccccc1`, the GI50 in assay [1] is 48.8 µM (inactive); in assay [14], > 100 µM (inactive); in assay [15], 66.7 µM (inactive); in assay [3] it was 42.1 µM (inactive); in assay [4] it was 17.3 µM (inactive); in [5] it was 33 µM (inactive). Besides, the GI50 in assay [6] is 45.1 µM (inactive); in assay [16] it was > 100 µM (inactive); in assay [7] it was 34 µM (inactive); in assay [17], > 100 µM (inactive); in assay [8], > 100 µM (inactive); in assay [18] it was 53.7 µM (inactive). Also, the GI50 in assay [13] was 36.4 µM (inactive); in assay [9], 29.3 µM (inactive); in assay [19], > 100 µM (inactive); in [20], > 100 µM (inactive); in assay [11], > 100 µM (inactive); in assay [12], 45.8 µM (inactive).

For the compound `COC(=O)c1c2c(c(-c3ccccc3)c3c1-c1nc(Cl)ccc1CC3)CCc1ccc(Cl)nc1-2`, the GI50 is > 100 µM (inactive) in assay [1]; 61.4 µM (inactive) in assay [15]; 77.6 µM (inactive) in assay [3]; > 100 µM (inactive) in assay [4]; > 100 µM (inactive) in [5]; > 100 µM (inactive) in assay [6]. The GI50 in assay [7] is > 100 µM (inactive); in [8], 65.2 µM (inactive); in assay [9], > 100 µM (inactive); in assay [19], 64 µM (inactive); in assay [10] it was 37.9 µM (inactive); in [11] it was > 100 µM (inactive). Also, the GI50 in [12] is > 100 µM (inactive).
